In patent US7160913B2, “Methods and kit for treating Parkinson's disease” (Thomas Jefferson University, priority 2002, dated 2007):

Tests used:
[1] = system: parkinsonian monkeys; test: Peak-dose levodopa anti-parkinsonian efficacy in parkinsonian monkeys; type: in vivo, monkey; conditions: 8 mg/kg D-cycloserine with 40 mg/kg levodopa plus 15 mg benserazide; assessed 30 or 60 minutes after levodopa; two parkinsonian monkeys
Experimental: In two parkinsonian monkeys with an established therapeutic response to levodopa, peak-dose levodopa efficacy was assessed by raters blind to treatment condition. Eight mg/kg D-cycloserine was administered to the monkeys with 40 mg/kg levodopa plus 15 mg benserazide.

[2] = system: parkinsonian monkey; test: Severity of levodopa-induced choreiform dyskinesias in a parkinsonian monkey; type: in vivo
Experimental: A parkinsonian monkey was primed for choreiform dyskinesia following chronic administration of levodopa plus the peripheral dopa decarboxylase inhibitor benserazide. […] Severity of the dyskinesias was rated by observers blind to the treatment condition. Three independent repetitions of the study were performed.

[3] = system: parkinsonian monkeys; test: Duration of levodopa anti-Parkinson effect ("on" time) in parkinsonian monkeys; type: in vivo, monkey; conditions: 8 mg/kg D-cycloserine with 40 mg/kg levodopa plus 15 mg benserazide, compared to levodopa plus benserazide alone; two parkinsonian monkeys; blinded raters
Experimental: Eight mg/kg D-cycloserine was administered to two parkinsonian monkeys with an established therapeutic response to levodopa, together with 40 mg/kg levodopa plus the 15 mg of the peripheral dopa decarboxylase inhibitor benserazide. Symptomatic benefit was assessed by raters blind to treatment condition.

[4] = system: parkinsonian monkey; test: Severity of levodopa-induced dystonias in a parkinsonian monkey; type: in vivo; conditions: 8 mg/kg D-cycloserine with 40 mg/kg levodopa plus 15 mg benserazide vs L-Dopa alone; at least over 120 minutes; three repetitions
Experimental: Under these conditions, 8 mg/kg D-cycloserine was administered to the monkeys with 40 mg/kg levodopa plus 15 mg benserazide. The severity of the dystonia was rated by observers blind to the treatment condition. […] Three independent repetitions of the study were performed.

SMILES	effect on therapeutic (anti-parkinsonian) efficacy of levodopa, peak-dose [1]	severity of levodopa-induced choreiform dyskinesias ([2]; 8 mg/kg D-cycloserine with 40 mg/kg levodopa plus 15 mg benserazide vs L-Dopa alone, at least over 120 minutes, monkey primed by chronic levodopa/benserazide, three repetitions)	enhancement of levodopa "on" time, or duration of symptomatic relief by levodopa [3] [%]	severity of levodopa-induced dystonias [4]	choreiform dyskinesias caused by levodopa challenge ([2]; 40 mg/kg challenge dose of levodopa, parkinsonian monkey primed by chronic levodopa plus benserazide)
N[C@@H]1CONC1=O [D-cycloserine]	did not interfere with or reduce the therapeutic efficacy of levodopa	significantly decreased the severity of these dyskinesias	41	significantly decreased the severity of the dystonias	–
N[C@@H](Cc1ccc(O)c(O)c1)C(=O)O [levodopa]	–	–	–	–	caused significant choreiform dyskinesias
